System: normal human lung fibroblasts
Assay: Ribosomal profiling: translational efficiency in TGFβ-treated fibroblasts
Format: cell-based
Conditions: TGFβ-treated fibroblasts
Method in brief: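 Genome-wide RPF and total RNA libraries (ARTseq, RNA-Seq) were made from lysates of cycloheximide-treated, PBS-washed cells. After trimming and human-genome mapping, per-gene coding-region counts were compared between RPF and RNA for translational efficiency. Genes scoring low in either fraction were dropped.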

COC(=O)[C@H]1[C@@H](O)[C@@]2(O)c3c(OC)cc(O[C@@H]4O[C@@H]([C@H](O)CO)CO[C@H]4OC)cc3O[C@@]2(c2ccc(OC)cc2)[C@@H]1c1ccccc1 [Silvestrol]
− (− = <0.9): renormalizing the translational profile of KITLG (ENSG00000049130) | renormalizing the translational profile of ADAMTS6 (ENSG00000049192) | renormalizing the translational profile of LETMD1 (ENSG00000050426) | renormalizing the translational profile of EIF4B (ENSG00000063046) | renormalizing the translational profile of RPL18 (ENSG00000063177) | renormalizing the translational profile of HIPK2 (ENSG00000064393) | renormalizing the translational profile of RASSF1 (ENSG00000068028) | renormalizing the translational profile of PABPC1 (ENSG00000070756) | renormalizing the translational profile of RPL31 (ENSG00000071082) | renormalizing the translational profile of AURKA (ENSG00000087586) | renormalizing the translational profile of RPL6 (ENSG00000089009) | renormalizing the translational profile of P2RX7 (ENSG00000089041) | renormalizing the translational profile of KDM2B (ENSG00000089094) | renormalizing the translational profile of RPLP0 (ENSG00000089157) | renormalizing the translational profile of IGBP1 (ENSG00000089289) | renormalizing the translational profile of FMO2 (ENSG00000094963) | renormalizing the translational profile of ACOT7 (ENSG00000097021) | renormalizing the translational profile of ATP5D (ENSG00000099624) | renormalizing the translational profile of LGALS1 (ENSG00000100097) | renormalizing the translational profile of EIF3L (ENSG00000100129) | renormalizing the translational profile of RPL3 (ENSG00000100316) | renormalizing the translational profile of AMMECR1 (ENSG00000101935) | renormalizing the translational profile of PLP2 (ENSG00000102007) | renormalizing the translational profile of EIF3E (ENSG00000104408) | renormalizing the translational profile of EEF1D (ENSG00000104529) | renormalizing the translational profile of C19orf53 (ENSG00000104979) | renormalizing the translational profile of GLTSCR2 (ENSG00000105373) | renormalizing the translational profile of RAB3D (ENSG00000105514) | renormalizing the translational profile of RPL18A (ENSG00000105640) | renormalizing the translational profile of COMP (ENSG00000105664) | renormalizing the translational profile of GDF10 (ENSG00000107623) | renormalizing the translational profile of RPL28 (ENSG00000108107) | renormalizing the translational profile of RPL19 (ENSG00000108298) | renormalizing the translational profile of NAT9 (ENSG00000109065) | renormalizing the translational profile of RPL34 (ENSG00000109475) | renormalizing the translational profile of CRYAB (ENSG00000109846) | renormalizing the translational profile of GAPDH (ENSG00000111640) | renormalizing the translational profile of C12orf57 (ENSG00000111678) | renormalizing the translational profile of MDFI (ENSG00000112559) | renormalizing the translational profile of RPL24 (ENSG00000114391) | renormalizing the translational profile of EEF1B2 (ENSG00000114942) | renormalizing the translational profile of IFIH1 (ENSG00000115267) | renormalizing the translational profile of DPH5 (ENSG00000117543) | renormalizing the translational profile of PPL (ENSG00000118898) | renormalizing the translational profile of PLEKHG1 (ENSG00000120278) | renormalizing the translational profile of LIAS (ENSG00000121897) | renormalizing the translational profile of GPSM2 (ENSG00000121957) | renormalizing the translational profile of RPL21 (ENSG00000122026) | renormalizing the translational profile of RPL5 (ENSG00000122406) | renormalizing the translational profile of RPL23 (ENSG00000125691) | renormalizing the translational profile of LAMP5 (ENSG00000125869) | renormalizing the translational profile of NECAB3 (ENSG00000125967) | renormalizing the translational profile of COX7C (ENSG00000127184) | renormalizing the translational profile of LIF (ENSG00000128342) | renormalizing the translational profile of MTUS1 (ENSG00000129422) | renormalizing the translational profile of ARHGEF6 (ENSG00000129675) | renormalizing the translational profile of RPL36 (ENSG00000130255) | renormalizing the translational profile of GDF15 (ENSG00000130513) | renormalizing the translational profile of ASS1 (ENSG00000130707) | renormalizing the translational profile of EIF2S3 (ENSG00000130741) | renormalizing the translational profile of RPL27 (ENSG00000131469) | renormalizing the translational profile of RARRES3 (ENSG00000133321) | renormalizing the translational profile of BIVM (ENSG00000134897) | renormalizing the translational profile of ATP5G2 (ENSG00000135390) | renormalizing the translational profile of KRT7 (ENSG00000135480) | renormalizing the translational profile of HNRNPA1 (ENSG00000135486) | renormalizing the translational profile of IL6 (ENSG00000136244) | renormalizing the translational profile of RPL35 (ENSG00000136942) | renormalizing the translational profile of NOV (ENSG00000136999) | renormalizing the translational profile of IER3 (ENSG00000137331) | renormalizing the translational profile of RPLP1 (ENSG00000137818) | renormalizing the translational profile of PAQR5 (ENSG00000137819) | renormalizing the translational profile of AOX1 (ENSG00000138356) | renormalizing the translational profile of FGF5 (ENSG00000138675) | renormalizing the translational profile of PDE5A (ENSG00000138735) | renormalizing the translational profile of DIAPH3 (ENSG00000139734) | renormalizing the translational profile of RPL13A (ENSG00000142541) | renormalizing the translational profile of RPL11 (ENSG00000142676) | renormalizing the translational profile of PLEKHA6 (ENSG00000143850) | renormalizing the translational profile of RPL32 (ENSG00000144713) | renormalizing the translational profile of RPL37 (ENSG00000145592) | renormalizing the translational profile of BTF3 (ENSG00000145741) | renormalizing the translational profile of HIGD2A (ENSG00000146066) | renormalizing the translational profile of CREB5 (ENSG00000146592) | renormalizing the translational profile of DENND2A (ENSG00000146966) | renormalizing the translational profile of RPL10 (ENSG00000147403) | renormalizing the translational profile of EIF3H (ENSG00000147677) | renormalizing the translational profile of RPL7A (ENSG00000148303) | renormalizing the translational profile of EIF3M (ENSG00000149100) | renormalizing the translational profile of FAU (ENSG00000149806) | renormalizing the translational profile of CCDC102B (ENSG00000150636) | renormalizing the translational profile of FRMD4A (ENSG00000151474) | renormalizing the translational profile of PLEKHH2 (ENSG00000152527) | renormalizing the translational profile of OBSCN (ENSG00000154358) | renormalizing the translational profile of OXA1L (ENSG00000155463) | renormalizing the translational profile of C9orf85 (ENSG00000155621) | renormalizing the translational profile of RPL30 (ENSG00000156482) | renormalizing the translational profile of EEF1A1 (ENSG00000156508) | renormalizing the translational profile of RPL8 (ENSG00000161016) | renormalizing the translational profile of RPL26 (ENSG00000161970) | renormalizing the translational profile of RPL29 (ENSG00000162244) | renormalizing the translational profile of CAMK2N1 (ENSG00000162545) | renormalizing the translational profile of IGFBP7 (ENSG00000163453) | renormalizing the translational profile of RPL22L1 (ENSG00000163584)
+ (+ = 0.9 to 1.5): renormalizing the translational profile of DNASE1L1 (ENSG00000013563) | renormalizing the translational profile of ASPM (ENSG00000066279) | renormalizing the translational profile of EPB41L1 (ENSG00000088367) | renormalizing the translational profile of IRAK3 (ENSG00000090376) | renormalizing the translational profile of PABPC4 (ENSG00000090621) | renormalizing the translational profile of CEP192 (ENSG00000101639) | renormalizing the translational profile of GLCCI1 (ENSG00000106415) | renormalizing the translational profile of HBEGF (ENSG00000113070) | renormalizing the translational profile of INHBA (ENSG00000122641) | renormalizing the translational profile of MATN3 (ENSG00000132031) | renormalizing the translational profile of KDM6B (ENSG00000132510) | renormalizing the translational profile of DDX60 (ENSG00000137628) | renormalizing the translational profile of GAS2L3 (ENSG00000139354) | renormalizing the translational profile of MYO19 (ENSG00000141140) | renormalizing the translational profile of HOMER1 (ENSG00000152413) | renormalizing the translational profile of ANKH (ENSG00000154122) | renormalizing the translational profile of ADAMTS5 (ENSG00000154736) | renormalizing the translational profile of NRG1 (ENSG00000157168)
++ (++ = 1.5 to 2.0): renormalizing the translational profile of PLEKHA5 (ENSG00000052126) | renormalizing the translational profile of PLD1 (ENSG00000075651) | renormalizing the translational profile of EDN1 (ENSG00000078401) | renormalizing the translational profile of ABCA6 (ENSG00000154262)
+++ (+++ = >2.0): renormalizing the translational profile of RASD1 (ENSG00000108551) | renormalizing the translational profile of CIT (ENSG00000122966) | renormalizing the translational profile of PPARG (ENSG00000132170)

Reference: patent US9993494B2, “Compositions and methods for treating fibrotic disease” (eFFECTOR Therapeutics, Inc., priority 2014, dated 2018)
